# System: CRP in Hep3B cells
# Test: Human Hep3B cells - CRP assay (CRP ELISA)
# Format: cell-based
# Conditions: 72 h, Hep3B cells stimulated with IL-1β, IL-6 and dexamethasone, three days, read-out: EC50 for reducing CRP levels
# From the text: Hep3B Cell Line is obtained from the American Type Culture Collection (ATCC Catalog No. HB-8064). The Hep3B cell line was derived from liver tissue of […]. The cells are epithelial in morphology and produce tumors in nude mice. The cells produce α-fetoprotein, hepatitis B surface antigen, albumin, α-2-macroglobulin, α-1-antitrypsin, transferrin, plasminogen, complement C3 and β-lipoprotein (Knowles BB, et al., Science, 1980, 209:497-499). This cell line has been widely used to study hepatocyte cytokine and acute phase protein release (e.g., Damtew B, et al.,1993, J Immunol 150:4001-4007).
# HEP3B cells are grown in Minimum Essential Medium (MEM; GIBCO) supplemented with 10% Fetal Bovine Serum (FBS; Hyclone), 1×Penicillin/Streptomycin (GIBCO, Cat #15140-122) and 0.1 mM non-essential amino acids (GIBCO, Catalog No. 11140-050). Cells are thawed and transferred to warm medium according to standard methods known in the art.
# Cells are incubated in flasks at 37° C. with 5% CO2 in an air atmosphere incubator. HEP3B growth media is changed every 2 days until the cells reach 70-80% confluence (approx. 3-4 days). For assay, the cells are transferred to 96-well plates, seeded at 5000 cells per well in culture media, and left to grow for 7 days in a 37° C. incubator (air supplemented with 5% CO2). Media is replaced daily until assay. Test compounds are diluted into “Stimulus Buffer” (MEM medium containing 0.1 mM non-essential amino acids, 1×penicillin/streptomycin, 10% FBS with 10 ng/ml IL-1β, 20 ng/ml IL-6 and 1 μM dexamethasone. Media is removed from the cells and is replaced with 200 μl of test dilution. Cells are returned to the incubator for three days at 37° C. CRP ELISA is then performed on supernatant from the cells, as described below.
# Costar EIA/RIA plates are coated with rabbit anti-human CRP (DAKO) diluted 1:4000 in carbonate buffer (100 μl/well) for 45 minutes at 37° C. Plates are then washed 5×with CRP washing buffer (50 mM Tris-HCl, 0.3M NaCl, […], pH 8.0) using an automatic plate washer. Plates may be dried, covered and refrigerated until use. Supernatant (100 μl) is removed from each well of the test plates and added to the corresponding well of a precoated ELISA plate.
# 100 μl HRP-conjugated rabbit anti-human CRP (DAKO) diluted 1:500 (in CRP wash buffer) is added to each well, followed by incubation for 30 minutes at 37° C. Plates are washed 5× with CRP washing buffer using the automatic plate washer. 200 μl of 3,3′,5,5′-Tetramethyl Benzidine (TMB) liquid Substrate System (Sigma, St. Louis, Mo.) is added to each well, followed by incubation in the dark for 15 minutes at room temperature. Finally, 50 μl of 1 M H2SO4 is added to each well and absorbance at 450 nm is immediately measured in a microtiter spectrophotometer.
# CRP measured as above is normalized to cell count per well, using a cell viability assay, such as the Cell Tracker Green assay. To do this, the remainder of the medium is from the cell test plates, cells are washed with 200 μl of pre-warmed 1×Hanks Basic Salt Solution (HBSS; GIBCO), and 100 μL of 5 μM Cell Tracker Green (Molecular Probes, Eugene, Oreg.) is added to each well. Plates are then incubated at 37° C. for 30 minutes. Cells are then washed twice with prewarmed 1×HBSS. Plates are immediately read using a Fluoroskan® flourometer with a 485 excitation/538 emission filter pair.
row,SMILES,EC50 [µM]
1,"COc1ccc(-c2coc3c(C)c(C)c(O)cc23)cc1 [3-(4-Methoxy-phenyl)-6,7-dimethyl-benzofuran-5-ol]",10 to 40
2,"Cc1c(O)cc2cc(C(=O)CN3CCOCC3)oc2c1C [1-(5-Hydroxy-6,7-dimethyl-benzofuran-2-yl)-2-morpholin-4-yl-ethanone]",10 to 40
3,"Cc1c(O)cc2c(-c3ccccc3)coc2c1C [6,7-Dimethyl-3-phenyl-benzofuran-5-ol]",10 to 40
4,"CC(=O)c1oc2c(C)c(C)c(O)cc2c1Br [1-(3-Bromo-5-hydroxy-6,7-dimethyl-benzofuran-2-yl)-ethanone]",10 to 40
5,"Cc1c(O)cc2cc(C3(O)CN(C)CCO3)oc2c1C (stereo not shown) [2-(5-Hydroxy-6,7-dimethyl-benzofuran-2-yl)-4-methyl-morpholin-2-ol]",10 to 40

# Other lines, results leading:
row,EC50 [µM],SMILES
1,10 to 40,"CC(=O)c1cc2cc(O)c(C)c(C)c2o1 [1-(5-Hydroxy-6,7-dimethyl-benzofuran-2-yl)ethanone]"
2,10 to 40,"Cc1c(C)c2occ(-c3ccccc3)c2c2c(-c3ccccc3)coc12 [4,5-Dimethyl-1,8-diphenyl-benzo[1,2-b;4,3-b′]difuran]"
